Columns and labels:
[1] = tested on: IKKα and IKKβ phosphorylation; test: TNFα-induced phosphorylation of the IKKs in HeLa cells; type: cell-based; conditions: TNFα 20 ng/ml for 20 minutes, IA 140 μM
Protocol: (A) IA inhibits IKK phosphorylation. HeLa cells were stimulated with TNFα (20 ng/ml for 20 minutes) in the absence or presence of IA (140 μM) as shown. Whole cell extracts were prepared and analyzed for the phosphoryation of IKKα and IKKβ by Western blotting (WB). (B) HeLa cells were stimulated with TNFα (20 ng/ml for 20 minutes) in the absence or presence of IA (140 μM). Cells were fixed and then stained with rabbit anti-p65 followed by anti-rabbit Rhodamine Red-labeled secondary Ab. and with DAPI for nuclei location (not shown). (B1) HeLa cells, no treatment; (B2) HeLa cells +IA; (B3) HeLa cells +TNF; (B4) HeLa cells +IA+TNF. The cells were examined under an Axioscope Zeiss microscope with a plan-Neofluor * 60 lens. Results of one of three independent experiments are shown.
Western Blot (WB). Following separation by SDS-PAGE, proteins were blotted to a polyvinylidene difluoride (PVDF) membrane (Millipore). The membrane was blocked in 5% (w/v) milk powder and then incubated in TBST containing the primary antibody and 2% (w/v) milk powder. All phospho-specific antibodies were purchased from Cell signaling Inc. αIκBa, αp65 and αCOX2 antibodies from Santa Cruz Inc. (California, USA). […]

General toxicity in mice = type: in vivo; conditions: single dose 150 mg/kg and 30 mg/kg 3 times a week for a month
mouse TRPV3-YFP = target: T1, mouse TRPV3-YFP (Mus musculus, UniProt Q8K424); test: Calcium imaging of HEK293 cells expressing mouse TRPV3-YFP; type: cell-based
T1 construct: expressed in transfected cells
T1 sequence (Q8K424 1-791): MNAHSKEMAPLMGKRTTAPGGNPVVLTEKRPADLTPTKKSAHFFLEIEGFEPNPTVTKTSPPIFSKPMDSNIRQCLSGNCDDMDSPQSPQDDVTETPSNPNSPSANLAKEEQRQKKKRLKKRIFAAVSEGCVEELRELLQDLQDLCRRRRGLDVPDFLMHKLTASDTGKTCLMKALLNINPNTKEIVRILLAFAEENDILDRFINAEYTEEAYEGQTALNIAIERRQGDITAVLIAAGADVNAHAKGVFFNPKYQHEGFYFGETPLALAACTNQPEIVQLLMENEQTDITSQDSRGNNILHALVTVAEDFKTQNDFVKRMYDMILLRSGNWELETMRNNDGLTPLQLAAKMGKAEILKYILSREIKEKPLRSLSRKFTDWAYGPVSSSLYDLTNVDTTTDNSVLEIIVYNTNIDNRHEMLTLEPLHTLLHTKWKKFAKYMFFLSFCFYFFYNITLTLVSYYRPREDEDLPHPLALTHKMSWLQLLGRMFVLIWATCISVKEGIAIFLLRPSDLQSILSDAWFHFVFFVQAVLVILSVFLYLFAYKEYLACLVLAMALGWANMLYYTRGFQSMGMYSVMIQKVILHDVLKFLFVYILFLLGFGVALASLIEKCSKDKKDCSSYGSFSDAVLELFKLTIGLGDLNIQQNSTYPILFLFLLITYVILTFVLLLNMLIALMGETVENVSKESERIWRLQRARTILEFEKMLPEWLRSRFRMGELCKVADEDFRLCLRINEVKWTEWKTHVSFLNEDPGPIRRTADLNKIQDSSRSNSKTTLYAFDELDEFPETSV
Protocol: All error bars indicate SEM; p values in all subfigures but c represent analysis with one-way ANOVA Bonferroni's post hoc.
TRPV3-YFP [O'dell, D. K., Rimmerman, N., Pickens, S. R. & Walker J. M. Fatty acyl amides of endogenous tetrahydroisoquinolines are active at the recombinant human TRPV1 receptor. […] Med. Chem. 15, 6164-6169 (2007)], TRPV4 and mock-transfected cell lines were cultured in DMEM 1× with L-glutamine (Mediatech, Inc. Herndon, Va.), containing 1% penicillin-streptomycin (Invitrogen, Carlsbad, Calif.) and 10% foetal bovine serum.
Calcium imaging of HEK 293 cells. TRPV1, TRPV3, and TRPV4 expressing HEK293 cells were plated 24-48 h before imaging in 96 well plates, loaded with 3 μM Fura-2 AM and imaged as previously described [O'dell, D. K., Rimmerman, N., Pickens, S. R. & Walker J. M. Fatty acyl amides of endogenous tetrahydroisoquinolines are active at the recombinant human TRPV1 receptor. […] Med. Chem. 15, 6164-6169 (2007)].
For single cell calcium imaging, HEK293-rat TRPV2 and HEK293-mouse TRPV3-YFP expressing cells were plated on collagen-coated glass cover slips. Cells were loaded for 60 min with 3 μM Fura-2 AM.
Data analysis of calcium imaging data. Analysis of calcium imaging data was done using a non-linear regression curve fit (Graphpad 4 Prism, San Diego, Calif.). t tests and one way ANOVA were calculated using SPSS (Chicago, Ill.). In the keratinocyte experiments, drug-induced response for each cell was taken as the maximal post-drug measurements over time minus the average of the last 5 pre-drug measurements. Averaged drug responses over 30 randomly selected cells per coverslip were analyzed with two-tailed unpaired t tests.

## CC(=O)OC1CC/C(C)=C/CC/C(C)=C/CC2(C(C)C)CCC1(C)O2 (stereo not drawn) [IA, incensole acetate]
[1]
  IKKα/IKKβ phosphorylation: inhibition of IKKα/IKKβ phosphorylation
General toxicity in mice
  weight loss: No weight loss was observed
Mouse TRPV3-YFP; IA 100 μM, 2-APB positive control
  calcium influx vs vehicle: significantly increased calcium influx
Mouse TRPV3-YFP; calcium in the extracellular media
  calcium influx Hill slope: 2.2
Mouse TRPV3-YFP; calcium in the extracellular media, read-out: calcium influx EC50
  EC50: 16 µM
Mouse TRPV3-YFP; no extracellular calcium
  calcium increase with calcium removed from the extracellular medium: significantly reduced

— patent publication US20100099756A1, “USES OF INCENSOLE, INCENSOLE ACETATE AND DERIVATIVES THEREOF” (YISSUM RESEARCH DEVELOPMENT COMPANY OF THE HEBREW …, priority 2006, published 2010)
